{
  "source": "patent US8044052B2",
  "about": "“Biaryl ether urea compounds” (Pfizer Inc., priority 2006, dated 2011)",
  "note": "Counter-ions that a name gives are not always drawn.",
  "data": [
    {"target": "T1, Human FAAH (Homo sapiens, UniProt O00519)", "T1 construct": "made in house", "T1 sequence (O00519 1-579)": "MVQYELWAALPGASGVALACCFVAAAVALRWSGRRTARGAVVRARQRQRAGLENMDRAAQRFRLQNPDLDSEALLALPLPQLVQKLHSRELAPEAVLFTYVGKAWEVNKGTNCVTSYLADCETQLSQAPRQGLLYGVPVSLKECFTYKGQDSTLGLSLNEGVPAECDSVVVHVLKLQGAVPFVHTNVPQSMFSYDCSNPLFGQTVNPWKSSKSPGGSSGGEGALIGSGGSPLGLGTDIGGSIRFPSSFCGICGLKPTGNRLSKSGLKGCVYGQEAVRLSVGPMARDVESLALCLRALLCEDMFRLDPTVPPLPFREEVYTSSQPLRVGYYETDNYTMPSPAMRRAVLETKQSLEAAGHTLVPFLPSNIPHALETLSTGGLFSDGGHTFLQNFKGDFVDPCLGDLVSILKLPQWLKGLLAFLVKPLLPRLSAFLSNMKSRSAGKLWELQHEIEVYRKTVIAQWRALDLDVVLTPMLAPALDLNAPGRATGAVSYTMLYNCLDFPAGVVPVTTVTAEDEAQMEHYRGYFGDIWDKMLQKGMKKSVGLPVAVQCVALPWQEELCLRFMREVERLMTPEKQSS", "test": "FAAH assay (glutamate dehydrogenase-coupled, oleamide substrate, absorbance at 340 nm)", "assay_type": "biochemical", "details": "irreversible inhibition, 1-4 nM FAAH, pH 7.4, 30° C., 90 min", "units": {"hFAAH kinact/Ki": "M⁻¹ s⁻¹"}, "values": [
      {"compound": "N-pyridin-4-yl-4-(3-{[5-(trifluoromethyl)pyridin-2-yl]oxy}benzylidene)piperidine-1-carboxamide trifluoroacetate [Example 76]", "hFAAH kinact/Ki": 2390}
    ]},
    {"target": "T1, Human FAAH", "test": "FAAH assay (glutamate dehydrogenase-coupled, oleamide substrate, absorbance at 340 nm)", "assay_type": "biochemical", "details": "irreversible inhibition, 1-4 nM FAAH, pH 7.4, 30° C., 90 min, read-out: hFAAH kinact/Ki", "units": {"kinact/KI": "M⁻¹ s⁻¹"}, "values": [
      {"compound": "O=C(Nc1cccnn1)N1CCC(=Cc2cccc(Oc3ccc(OCC(F)(F)F)cc3)c2)CC1", "note": "[Example 100, N-pyridazin-3-yl-4-{3-[4-(2,2,2-trifluoroethoxy)phenoxy]benzylidene}piperidine-1-carboxamide]", "kinact/KI": 2000},
      {"compound": "COc1ncccc1NC(=O)N1CCC(=Cc2cccc(Oc3ccc(C(F)(F)F)cn3)c2)CC1", "note": "[Example 129, N-(2-methoxypyridin-3-yl)-4-(3-{[5-(trifluoromethyl)pyridin-2-yl]oxy}benzylidene)piperidine-1-carboxamide]", "kinact/KI": 1730},
      {"compound": "O=C(Nc1cc(CO)ccn1)N1CCC(=Cc2cccc(Oc3ccc(C(F)(F)F)cn3)c2)CC1", "note": "[Example 83, N-[4-(hydroxymethyl)pyridin-2-yl]-4-(3-{[5-(trifluoromethyl)pyridin-2-yl]oxy}benzylidene)piperidine-1-carboxamide trifluoroacetate]", "kinact/KI": 356},
      {"compound": "Cc1ccc(Oc2cccc(C=C3CCN(C(=O)Nc4cccnn4)CC3)c2)nc1", "note": "[Example 45, 4-(3-(5-methylpyridin-2-yloxy)benzylidene)-N-(pyridazin-3-yl)piperidine-1-carboxamide]", "kinact/KI": 12800},
      {"compound": "Cc1ccc(NC(=O)N2CCC(=C(F)c3cccc(Oc4ccc(C(F)(F)F)cn4)c3)CC2)cn1", "note": "[Example 70, 4-(fluoro(3-(5-(trifluoromethyl)pyridin-2-yloxy)phenyl)methylene)-N-(6-methylpyridin-3-yl)piperidine-1-carboxamide]", "kinact/KI": 4590},
      {"compound": "COc1ccc(NC(=O)N2CCC(=C(F)c3cccc(Oc4ccc(C(F)(F)F)cn4)c3)CC2)cn1", "note": "[Example 71, 4-(fluoro(3-(5-(trifluoromethyl)pyridin-2-yloxy)phenyl)methylene)-N-(6-methoxypyridin-3-yl)piperidine-1-carboxamide]", "kinact/KI": 777},
      {"compound": "O=C(Nc1ccnnc1)N1CCC(=Cc2cccc(Oc3ccc(C(F)(F)F)cn3)c2)CC1", "note": "[Example 25, N-(pyridazin-4-yl)-4-(3-{[5-(trifluoromethyl)pyridin-2-yl]oxy}benzylidene)piperidine-1-carboxamide]", "kinact/KI": 12100},
      {"compound": "Cc1cc(C=C2CCN(C(=O)Nc3cccnc3)CC2)cc(Oc2ccc(C(F)(F)F)cn2)c1", "note": "[Example 61, 4-(3-methyl-5-(5-(trifluoromethyl)pyridin-2-yloxy)benzylidene)-N-(pyridin-3-yl)piperidine-1-carboxamide]", "kinact/KI": 2130},
      {"compound": "Cc1nn(C)c(C)c1NC(=O)N1CCC(=Cc2cccc(Oc3ccc(C(F)(F)F)cn3)c2)CC1", "note": "[Example 134, 4-(3-{[5-(trifluoromethyl)pyridin-2-yl]oxy}benzylidene)-N-(1,3,5-trimethyl-1H-pyrazol-4-yl)piperidine-1-carboxamide]", "kinact/KI": "< 10"},
      {"compound": "O=C(Nc1cccnc1)N1CCC(=Cc2cccc(OCc3ccccc3)c2)CC1", "note": "[Example 17, 4-[3-(benzyloxy)benzylidene]-N-pyridin-3-ylpiperidine-1-carboxamide]", "kinact/KI": 1620},
      {"compound": "O=C(Nc1cccnn1)N1CCC(=Cc2cccc(Oc3ccc(N4CCCC4)cn3)c2)CC1", "note": "[Example 85, 4-(3-(5-(pyrrolidin-1-yl)pyridin-2-yloxy)benzylidene)-N-(pyridazin-3-yl)piperidine-1-carboxamide]", "kinact/KI": 1540},
      {"compound": "Cn1ncc(NC(=O)N2CCC(=Cc3cccc(Oc4ccc(C(F)(F)F)cn4)c3)CC2)n1", "note": "[Example 78, N-(2-methyl-2H-1,2,3-triazol-4-yl)-4-(3-{[5-(trifluoromethyl)pyridin-2-yl]oxy}benzylidene)piperidine-1-carboxamide]", "kinact/KI": 2100},
      {"compound": "Cc1cnc(Oc2cccc(C=C3CCN(C(=O)Nc4cccnn4)CC3)c2)nc1C(C)C", "note": "[Example 112, 4-{3-[(4-isopropyl-5-methylpyrimidin-2-yl)oxy]benzylidene}-N-pyridazin-3-ylpiperidine-1-carboxamide]", "kinact/KI": 861},
      {"compound": "O=C(Nc1cccnc1)N1CCC(=C(F)c2cccc(Oc3ccc(C(F)(F)F)cn3)c2)CC1", "note": "[Example 69, 4-(fluoro(3-(5-(trifluoromethyl)pyridin-2-yloxy)phenyl)methylene)-N-(pyridin-3-yl)piperidine-1-carboxamide]", "kinact/KI": 2300},
      {"compound": "O=C(Nc1ccc(O)nc1)N1CCC(=Cc2cccc(Oc3ccc(C(F)(F)F)cn3)c2)CC1", "note": "[Example 142, N-(6-hydroxypyridin-3-yl)-4-(3-{[5-(trifluoromethyl)pyridin-2-yl]oxy}benzylidene)piperidine-1-carboxamide]", "kinact/KI": 246},
      {"compound": "COc1cncc(NC(=O)N2CCC(=Cc3cccc(Oc4ccc(C(F)(F)F)cn4)c3)CC2)c1", "note": "[Example 130, N-(5-methoxypyridin-3-yl)-4-(3-{[5-(trifluoromethyl)pyridin-2-yl]oxy}benzylidene)piperidine-1-carboxamide]", "kinact/KI": 944},
      {"compound": "Cc1cc(NC(=O)N2CCC(=Cc3cccc(Oc4ccc(C(F)(F)F)cn4)c3)CC2)n[nH]1", "note": "[Example 139, N-(5-methyl-1H-pyrazol-3-yl)-4-(3-{[5-(trifluoromethyl)pyridin-2-yl]oxy}benzylidene)piperidine-1-carboxamide]", "kinact/KI": 306}
    ]},
    {"test_system": "not given", "test": "not given", "details": "not given", "units": {"melting point": "°C"}, "values": [
      {"compound": "Cc1ccc(NC(=O)N2CCC(=C(F)c3cccc(Oc4ccc(C(F)(F)F)cn4)c3)CC2)cn1", "note": "[Example 70, 4-(fluoro(3-(5-(trifluoromethyl)pyridin-2-yloxy)phenyl)methylene)-N-(6-methylpyridin-3-yl)piperidine-1-carboxamide]", "melting point": "158 to 160"}
    ]}
  ]
}
